Source: patent publication US11414439B2, “Modulators of cystic fibrosis transmembrane conductance regulator, pharmaceutical compositions, methods of treatment, and process for making the modulator” (Vertex Pharmaceuticals Incorporated, priority 2018, dated 2022)

test system: CFTR; assay: CFTR modulating activity (Table 6; one or more of the disclosed assays, e.g. enteroid membrane potential dye assay); type: cell-based, human; settings: generated using one or more of the assays disclosed herein; also: key: Active; ND-not detected
Text: Human intestinal epithelial enteroid cells may be obtained from the Hubrecht Institute for Developmental Biology and Stem Cell Research, Utrecht, The Netherlands and expanded in T-Flasks as previously described (Dekkers J F, Wiegerinck C L, de Jonge H R, Bronsveld I, Janssens H M, de Winter-de Groot K M, Brandsma A M, de Jong N W M, Bijvelds M J C, Scholte B J, Nieuwenhuis E E S, van den Brink S, Clevers H, van der Ent C K, Middendorp S and M Beekman J M. A functional CFTR assay using primary cystic fibrosis intestinal organoids. Nat Med. 2013 July; 19(7):939-45).
Cells may be recovered in cell recovery solution, collected by centrifugation at 650 rpm for 5 min at 4° C., resuspended in TryPLE and incubated for 5 min at 37° C. Cells can then be collected by centrifugation at 650 rpm for 5 min at 4° C. and resuspended in IEMM containing 10 μM ROCK inhibitor (RI). The cell suspension is then passed through a 40 μm cell strainer and resuspended at 1×10^6 cells/mL in IEMM containing 10 μM RI. Cells may be seeded at 5000 cells/well into multi-well plates and incubated for overnight at 37° C., 95% humidity and 5% CO2 prior to assay.
Enteroid cells may be incubated with test compound in IEMM for 18-24 hours at 37° C., 95% humidity and 5% CO2. Following compound incubations, a membrane potential dye assay can be employed using a FLIPR Tetra to directly measure the potency and efficacy of the test compound on CFTR-mediated chloride transport following acute addition of 10 μM forskolin and 300 nM N-[2,4-bis(1,1-dimethylethyl)-5-hydroxyphenyl]-1,4-dihydro-4-oxoquinoline-3-carboxamide. Briefly, cells are washed 5 times in Bath 1 Buffer. Bath 1 Dye Solution is added and the cells are incubated for 25 min at room temperature. Following dye incubation, cells are washed 3 times in Chloride Free Dye Solution. Chloride transport is initiated by addition of Chloride Free Dye Stimulation Solution and the fluorescence signal is read for 15 min. The CFTR-mediated chloride transport for each condition may be determined from the AUC of the fluorescence response to acute forskolin and 300 nM N-[2,4-bis(1,1-dimethylethyl)-5-hydroxyphenyl]-1,4-dihydro-4-oxoquinoline-3-carboxamide stimulation.
Chloride transport may be expressed as a percentage of the chloride transport following treatment with one or more reference standards or positive controls. Suitable reference standards/controls include one or more of Compound II, Compound III, Compound IV, and Compound A. Compound A is:
Table 6 confirms CFTR modulating activity for representative compounds of the invention generated using one or more of the assays disclosed herein.

Structure (SMILES)	CFTR Modulating Activity
Cc1nn(C)cc1S(=O)(=O)NC(=O)c1ccc(-n2ccc(OCC(C)(C)C(F)(F)F)n2)nc1N1CC([Si](C)(C)C)CC1(C)C (single isomer, unassigned) [(2-8) Enantiomer 2]	Active
Cc1nn(C)cc1S(=O)(=O)NC(=O)c1ccc(-n2ccc(OCC(C)(C)C(F)(F)F)n2)nc1N1C[C@@H](C)CC1(C)[Si](C)(C)C (single isomer, unassigned) [(2-9) Stereoisomer 1]	Active
Cc1nn(C)cc1S(=O)(=O)NC(=O)c1ccc(-n2ccc([Si](C)(C)CCC(C)(C)C)n2)nc1N1C[C@@H](C)CC1(C)C [Compound (2-1), 6-[3-[3,3-Dimethylbutyl(dimethyl)silyl]pyrazol-1-yl]-N-(1,3-dimethylpyrazol-4-yl)sulfonyl-2-[(4S)-2,2,4-trimethylpyrrolidin-1-yl]pyridine-3-carboxamide]	Active
Cc1nn(C)cc1S(=O)(=O)NC(=O)c1ccc(-n2ccc(OCCC3([Si](C)(C)C)CC3)n2)nc1N1C[C@@H](C)CC1(C)C [Compound (2-2), N-(1,3-dimethylpyrazol-4-yl)sulfonyl-2-[(4S)-2,2,4-trimethylpyrrolidin-1-yl]-6-[3-[2-(1-trimethylsilylcyclopropyl)ethoxy]pyrazol-1-yl]pyridine-3-carboxamide]	Active
Cc1nn(C)cc1S(=O)(=O)NC(=O)c1ccc(-n2ccc(OC[Si](C)(C)C)n2)nc1N1C[C@@H](C)CC1(C)C [Compound (2-3), N-(1,3-Dimethylpyrazol-4-yl)sulfonyl-2-[(4S)-2,2,4-trimethylpyrrolidin-1-yl]-6-[3-(trimethylsilylmethoxy)pyrazol-1-yl]pyridine-3-carboxamide]	Active
Cc1nn(C)cc1S(=O)(=O)NC(=O)c1ccc(-n2ccc(OCC[Si](C)(C)C)n2)nc1N1C[C@@H](C)CC1(C)C [Compound (2-4), N-(1,3-dimethylpyrazol-4-yl)sulfonyl-2-[(4S)-2,2,4-trimethylpyrrolidin-1-yl]-6-[3-(2-trimethylsilylethoxy)pyrazol-1-yl]pyridine-3-carboxamide]	Active
Cc1nn(C)cc1S(=O)(=O)NC(=O)c1ccc([Si](C)(C)C)nc1N1C[C@@H](C)CC1(C)C [Compound (2-5), N-(1,3-dimethylpyrazol-4-yl)sulfonyl-2-[(4S)-2,2,4-trimethylpyrrolidin-1-yl]-6-trimethylsilyl-pyridine-3-carboxamide]	Active
Cc1nn(C)cc1S(=O)(=O)NC(=O)c1ccc(-n2ccc(OCCC[Si](C)(C)C)n2)nc1N1C[C@@H](C)CC1(C)C [Compound (2-6), N-(1,3-Dimethylpyrazol-4-yl)sulfonyl-2-[(4S)-2,2,4-trimethylpyrrolidin-1-yl]-6-[3-(3-trimethylsilylpropoxy)pyrazol-1-yl]pyridine-3-carboxamide]	Active
Cc1nn(C)cc1S(=O)(=O)NC(=O)c1ccc(-n2ccc([Si](C)(C)CCC(F)(F)F)n2)nc1N1C[C@@H](C)CC1(C)C [Compound (2-7), N-(1,3-Dimethylpyrazol-4-yl)sulfonyl-6-[3-[dimethyl(3,3,3-trifluoropropyl)silyl]pyrazol-1-yl]-2-[(4S)-2,2,4-trimethylpyrrolidin-1-yl]pyridine-3-carboxamide]	Active
Cc1nn(C)cc1S(=O)(=O)NC(=O)c1ccc(-n2ccc([Si](C)(C)C(C)(C)C)n2)nc1N1C[C@@H](C)CC1(C)C [Compound (2-10), 6-[3-[tert-Butyl(dimethyl)silyl]pyrazol-1-yl]-N-(1,3-dimethylpyrazol-4-yl)sulfonyl-2-[(4S)-2,2,4-trimethylpyrrolidin-1-yl]pyridine-3-carboxamide]	Active
Cc1nn(C)cc1S(=O)(=O)NC(=O)c1ccc(-n2ccc(OC[Si](C)(C)C(C)(C)C)n2)nc1N1C[C@@H](C)CC1(C)C [Compound (2-11), 6-[3-[[tert-Butyl(dimethyl)silyl]methoxy]pyrazol-1-yl]-N-(1,3-dimethylpyrazol-4-yl)sulfonyl-2-[(4S)-2,2,4-trimethylpyrrolidin-1-yl]pyridine-3-carboxamide]	Active
Cc1nn(C)cc1S(=O)(=O)NC(=O)c1ccc(-n2ccc([Si](C)(C)C)n2)nc1N1C[C@@H](C)CC1(C)C [Compound (2-12), N-(1,3-Dimethylpyrazol-4-yl)sulfonyl-2-[(4S)-2,2,4-trimethylpyrrolidin-1-yl]-6-(3-trimethylsilylpyrazol-1-yl)pyridine-3-carboxamide]	Active
